The values that follow come from patent US11096947B2, “Combination products with tyrosine kinase inhibitors and their use” (Novartis AG, priority 2012, dated 2021).

Assay [1] relates to HCC827 cells. Nature of the assay: Proliferation assay (resazurin / AlamarBlue readout) in HCC827 cells. It counts as cell-based. The settings on record: single agent, up to 1 μM.
Experimental: A DMSO-only control was included. […] Recombinant human HGF (PeproTech, catalogue number 100-39) was added together with compounds at a constant concentration as indicated in the respective experiments. Cells were incubated for 72 to 96 h and the amount of viable cells was then assessed using a resazurin sodium salt dye reduction readout (commercially known as AlamarBlue® assay, Invitrogen, Life Technologies Corporation, Grand Island, N.Y., USA). Values were normalized and plotted as either “% of control” with the DMSO control set to 100%, or as “fold seeded cells”. In this case a resazurin readout of separate wells with untreated cells was obtained 24 h after seeding in order to determine a “seeded cells” value for normalization. Plotting of the data and curve-fitting were done with GraphPad Prism version 5.00 for Windows (GraphPad Software, Inc., La Jolla, Calif., USA).
Assay [2] relates to HCC827 GR cells. Nature of the assay: Proliferation assay (resazurin / AlamarBlue readout) in gefitinib-resistant HCC827 GR cells. Conditions: monotherapy. It counts as cell-based.
Experimental: 24 h later, a 10-point dilution series of each compound was prepared in DMSO. […] A DMSO-only control was included. […] Recombinant human HGF (PeproTech, catalogue number 100-39) was added together with compounds at a constant concentration as indicated in the respective experiments. Cells were incubated for 72 to 96 h and the amount of viable cells was then assessed using a resazurin sodium salt dye reduction readout (commercially known as AlamarBlue® assay, Invitrogen, Life Technologies Corporation, Grand Island, N.Y., USA). Values were normalized and plotted as either “% of control” with the DMSO control set to 100%, or as “fold seeded cells”. In this case a resazurin readout of separate wells with untreated cells was obtained 24 h after seeding in order to determine a “seeded cells” value for normalization.
The subject of assay [3] is HCC827GR5 subcutaneous xenografts. Description: Efficacy experiments in mice bearing HCC827GR5 subcutaneous xenografts. It counts as in vivo. Conditions: for antitumor effect as single agent: Discussion; for antitumor effect as single agent / regressions / Delta tumor volume: MET inhibitor 3 mg/kg, gefitinib 25 mg/kg; for regressions: orally once a day; for regressions / T/C: 13 days; for T/C: gefitinib 25 mg/kg orally once a day. The protocol:
Experiments were performed in female Hsd: Athymic nude-nu CPB mice obtained from Harlan Winkelmann, Germany. Animally were approximately 11 weeks of age at treatment start and housed under Optimized Hygienic Conditions (OHC) in Macrolon type III cages (max. 5 animals per cage) with free access to food and water.
Cell line identity has been confirmed by SNP genotyping. Cells were grown in RPMI 1640 medium (Amimed #1-41F01-1) supplemented with 10% heat inactivated FCS, (Amimed #2-01F16-1), 2 mM L-glutamine (Amimed #5-10K00-H), 1 mM sodium pyruvate (Amimed #5-60F00-H) and 10 mM HEPES (Gibco #15630). […]. Cells were incubated at 37° C. in a humidified atmosphere with 5% CO2.
HCC827GR5 tumors were established by subcutaneous injection of 5×10^6 cells in 115 μl HBSS (Hank's buffered salt solution) containing 50% Matrigel (v/v) (gelatinous protein mixture secreted by Engelbreth-Holm-Swarm (EHS) mouse sarcoma cells, BD Biosciences, Franklin Lakes, N.J., USA) into the right flank of mice, with a 13 gauge trocar needle under Forene® (Isofluran; Abott, Switzerland) anesthesia. In the efficacy experiments, treatments started when the tumors reached an average size of 150 mm^3, 11 days post tumor implantation. In the PK/PD experiment, treatments were started when the mean tumor size was 450 mm^3, 15 days post tumor implantation.
The application volumes were 10 ml/kg for the single agents and for the vehicle control group or 5 ml/kg when the test compounds were given in combination. All indicated doses refer to free base equivalent of 2-Fluoro-N-methyl-4-[(7-quinolin-6-yl-methyl)-imidazo[1,2-b]triazin-2-yl]benzamide (dihydrochloride salt). […].
Tumor volumes were measured with calipers and determined according to the formula length×diameter^2×π/6. In addition to presenting changed of tumor volumes over the course of treatments, antitumor activity is expressed as T/C % ((mean change of tumor volume of treated animals/mean change of tumor volume of control animals)×100). Regressions (%) were calculated according to the formula ((mean tumor volume at end of treatment−mean tumor volume at start of treatment)/mean tumor volume at start of treatment)×100. Body weights and tumor volumes were recorded twice a week.
Statistics: Were applicable, data is presented as mean±SEM. For all tests, the level of significance was set at p<0.05. For tumor volumes, comparisons between treatment groups and vehicle control group were done using one-way ANOVA followed by Dunnett's test. Pairwise comparisons were done using a one way ANOVA followed by Tukey's test. The level of significance of body weight change within a group between the start and the end of the treatment period was determined using a paired t-test. Comparisons of delta body weighs between treatment and vehicle control groups were performed by a one-way ANOVA followed by a post hoc Dunnett's test. Calculations were performed using GraphPad Prism 4 for Windows (GraphPad Software Inc.). In addition, an approximation of drug interactions was made using the method described by Clarke (Clarke R., Breast Cancer Research and Treatment 46, 255-278 (1997)). This was applied to delta tumor volumes and can estimate interactions from limited data. In short, the combination data was assessed using the method presented by Clarke which can estimate interactions from limited data. For compound A, B or the combination AB (with control group C), antagonism is predicted when the calculation AB/C>A/C×B/C, additive effect: AB/C=A/C×B/C, synergistic interactions are predicted to occur when AB/C<A/C×B/C.
The body weight increase was statistically significant in all groups excepted the combination group (p<0.05, paired t-test).

The test system is the same in assay [4]. Description: Follow-up of HCC827GR5 xenografts after treatment discontinuation or extension. Conditions: 4 animals. It counts as in vivo, mice. The protocol: FIG. 5: Graphic representation of the change of tumor volumes over time after treatment discontinuation in mice (in vivo) as described in more detail in the Examples. […] Treatments started 11 days post tumor cells implantation and lasted 13 consecutive days. […] Four animals were kept under observation, without any treatment (left panel) while the two other groups of 4 animals each were kept under daily treatment as before (right panel). Tumor volumes and body weights were recorded only once a week. Horizontal lines are set at 100 and 500 mm^3 tumor volumes.
[…]. Treatments started 11 days post tumor cells implantation and lasted 13 consecutive days. […] Four animals were kept under observation, without any treatment (left panel) while the two other groups of 4 animals each were kept under daily treatment as before (right panel). Tumor volumes and body weights were recorded only once a week. Horizontal lines are set at 100 and 500 mm^3 tumor volumes, respectively. […] […]. The tumors in the animals that received the combination therapy continued to regress from a mean volume of 33+/−1.3 to 26.3+/−2.8 mm^3 (representing a mean of 89.2% regression from the initial volume).

Assay [5] concerns c-MET-driven or HGF/c-MET-driven xenograft. Nature of the assay: c-MET-driven or HGF/c-MET-driven xenograft mouse tumor models. It counts as in vivo. Conditions: oral dosing. The source says:
[…]. […] […]. […] Importantly, cell lines with simultaneous HGF and c-MET expression are also relatively resistant to EGFR inhibitors compared to cell lines with similar c-MET level that lack HGF expression.

SMILES strings stand for the structures.

Regarding `CNC(=O)c1ccc(-c2cnc3ncc(Cc4ccc5ncccc5c4)n3n2)cc1F` [2-fluoro-N-methyl-4-[(7-quinolin-6-yl-methyl)-imidazo[1,2-b]triazin-2-yl]benzamide], the “effect on proliferation of the HCC827 cells” value in assay [1] was “did not show any substantial effect”. In addition, in assay [2], the “effect of single agent on proliferation of HCC827 GR cells” value is reported as “modest”. In addition, in assay [3], the “antitumor effect as single agent” value is “slight statistically significant tumor regressions”. For the same compound, the values for the regressions in assay [3] (first experiment (FIG. 3)) and in assay [3] (second experiment (FIG. 4)) were 22.9% and 21.4%, respectively. The Delta tumor volume in assay [3] (first experiment, Table 1) is reported as −60.2; in assay [3] (second experiment, Table 2), −55.7. Besides, the “tumor volume, mean+/−SEM, after treatment discontinuation” value in assay [4] (no treatment after day 24 (FIG. 5 left graph)) is given as 516+/−112 mm^3. In assay [4] (treatment continued after day 24 (FIG. 5 right panel)), the “tumor volume, mean, under extended daily treatment” value was 400+/−80 mm^3. In addition, in assay [5], the “in vivo activity in blocking c-MET phosphorylation and tumor growth” value is “significant in vivo activity”.

`COc1cc2ncnc(Nc3ccc(F)c(Cl)c3)c2cc1OCCCN1CCOCC1` [gefitinib, N-(3-hloro-4-fluorophenyl)-7-methoxy-6-[3-(morpholin-4-yl)propoxy]quinazolin-4-amine, reference compound]: in assay [3], the “antitumor effect as single agent” value is “statistically significant antitumor effects, but never regressions”. The results for the T/C in assay [3] (first experiment (FIG. 3)) and in assay [3] (second experiment (FIG. 4)) were 32.5% and 49.4%, respectively. Besides, the Delta tumor volume in assay [3] (first experiment, Table 1) was 173.1; in assay [3] (second experiment, Table 2), 261.
